According to US20110034526A1, “Benzimidazole Compounds” (Wyeth LLC, priority 2007, published 2011):
pEC50, pIC50: −log10 of the molar value.

What was measured:
[1] = system: ABCA1 gene; assay: Quantitative analysis of ABCA1 gene regulation in THP-1 cells (real-time PCR); type: cell-based, human; settings: Gene regulation by LXR (Human); differentiated THP-1 cells, 18 hrs, ABCA1 mRNA; read-out: EC50 ABCA1
Method: The compounds of formula (I) effect on the regulation of the ABCA1 gene was evaluated using the following procedure.
The THP-1 monocytic cell line (ATCC # TIB-202) was obtained from American Type Culture Collection (Manassas, Va.) and cultured in RPMI 1640 medium (Gibco, Carlsbad, Calif.) containing 10% FBS, 2 mM L-glutamine, and 55 uM beta-Mercaptoethanol (BME). […] Differentiated THP-1 cells were treated with test compounds or ligands dissolved in DMSO (Sigma, D-8779) in culture medium lacking phorbal ester. […] Unstimulated cells treated with vehicle were included as negative controls on each plate. An LXR agonist reference, N-(2,2,2-trifluoro-ethyl)-N-[4-(2,2,2-trifluoro-1-hydroxy-1-trifluoromethyl-ethyl)-phenyl]-benzenesulfonamide (Schultz, Joshua R., Genes & Development (2000), 14(22), 2831-2838), was dosed at 1.0 uM and served as a positive control. […] Results of antagonist analysis are expressed as % antagonism and IC50 (in μM).
Total cellular RNA was isolated from treated cells cultured in 96-well plates using PrepStation 6100 (Applied Biosystems, Foster City, Calif.), according to the manufacturer's recommendations. RNA was resuspended in ribonuclease-free water and stored at −70° C. prior to analysis. RNA concentrations were quantitated with RiboGreen test procedure, #R-11490 (Molecular Probes, Eugene, Oreg.).
Gene-specific mRNA quantitation was performed by real-time PCR with the Perkin Elmer Corp. chemistry on an ABI Prism 7700 Sequence detection system (Applied Biosystems, Foster City, Calif.) according to the manufacturer's instructions. Samples (50-100 ng) of total RNA were assayed in duplicate or triplicate in 50 μl reactions using one-step RT-PCR and the standard curve method to estimate specific mRNA concentrations. Sequences of gene-specific primer and probe sets were designed with Primer Express Software (Applied Biosystems, Foster City, Calif.). […] RT and PCR reactions were performed according to PE Applied Biosystem's protocol for Taqman Gold RT-PCR or Qiagen's protocol for Quantitect probe RT-PCR. Relative levels of ABCA1 mRNA are normalized using GAPDH mRNA or 18S rRNA probe/primer sets purchased commercially (Applied Biosystems, Foster City, Calif.).
Mean, standard deviation and statistical significance of duplicate evaluations of RNA samples were assessed using ANOVA, one-way analysis of variance using SAS analysis.

[2] = target: T1, human LXRβ (Homo sapiens, UniProt P55055); assay: Ligand-binding test procedure for human LXRβ (3H T0901317 tracer, flash plates)
T1 construct: biotin (biotinylated); made in house; host or cells: E. coli (crude extract)
T1 sequence (P55055 1-460): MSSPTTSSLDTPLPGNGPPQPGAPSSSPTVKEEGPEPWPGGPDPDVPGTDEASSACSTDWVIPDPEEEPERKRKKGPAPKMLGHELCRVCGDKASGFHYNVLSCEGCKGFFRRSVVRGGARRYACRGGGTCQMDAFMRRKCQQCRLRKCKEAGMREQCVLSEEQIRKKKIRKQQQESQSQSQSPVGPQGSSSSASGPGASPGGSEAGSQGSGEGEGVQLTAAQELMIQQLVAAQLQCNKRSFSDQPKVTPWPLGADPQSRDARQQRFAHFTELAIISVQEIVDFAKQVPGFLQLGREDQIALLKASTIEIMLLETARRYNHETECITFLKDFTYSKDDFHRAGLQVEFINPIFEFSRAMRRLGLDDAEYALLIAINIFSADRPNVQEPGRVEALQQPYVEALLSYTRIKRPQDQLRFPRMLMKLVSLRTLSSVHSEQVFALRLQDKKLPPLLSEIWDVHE
Method: Receptor source: E. coli extracted from cells expressing biotinylated hLXRβ. Extract was made in a similar buffer as above, but with 50 mM TRIS.
Washed streptavidin and coated flash plates with wash buffer. Diluted receptor extract to give Bmax ˜4000 cpm and add to the wells. Wrapped the plates in aluminum foil and stored them at +4° C. overnight.
(§1) Made a dilution series in DMSO of the test ligands. Made a 5 nM solution of the radioactive tracer in buffer. Mixed 250 μl diluted tracer with 5 μl of the test ligand from each concentration of the dilution series. Washed the receptor-coated flash plates. Added 200 μl per well of the ligand/radiolabel mixture to the receptor-coated flash plates. Wrapped the plates in aluminum foil and incubate at +4° C. over night.
Aspirated wells, and washed the flashed plates. Sealed the plate. Measured the remaining radioactivity in the plate.

[3] = target: T2, human LXRα (Homo sapiens, UniProt Q13133); assay: Ligand-binding test procedure for human LXRα (3H T0901317 tracer, flash plates); settings: biotinylated hLXRα, tracer 3H T0901317
T2 construct: biotin (biotinylated); made in house; host or cells: E. coli (crude extract)
T2 sequence (Q13133 1-447): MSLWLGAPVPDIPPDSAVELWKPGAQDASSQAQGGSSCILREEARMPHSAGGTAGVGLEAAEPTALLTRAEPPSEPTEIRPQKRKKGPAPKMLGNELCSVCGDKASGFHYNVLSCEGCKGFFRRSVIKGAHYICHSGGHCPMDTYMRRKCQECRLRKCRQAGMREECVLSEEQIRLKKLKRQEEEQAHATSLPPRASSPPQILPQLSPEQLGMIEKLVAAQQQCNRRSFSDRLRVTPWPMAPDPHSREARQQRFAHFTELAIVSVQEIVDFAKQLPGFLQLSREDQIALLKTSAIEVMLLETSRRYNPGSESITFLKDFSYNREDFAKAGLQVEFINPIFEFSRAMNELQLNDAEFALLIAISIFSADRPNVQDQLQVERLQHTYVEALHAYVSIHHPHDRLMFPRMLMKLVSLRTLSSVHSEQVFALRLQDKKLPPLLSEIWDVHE
Method: Receptor source: E. coli extract from cells expressing biotinylated hLXRcc. Extract was made in a similar buffer as above, but with 50 mM TRIS.
Washed streptavidin and coated flash plates with wash buffer. Diluted receptor extract to give Bmax ˜4000 cpm and add to the wells. Wrapped the plates in aluminum foil and stored them at +4° C. over night.
as §1
Aspirated wells, and wash the flashed plates. Sealed the plate. Measured the remaining radioactivity in the plate.

Row | pIC50 [2] | pIC50 [3] | Structure (SMILES) | pEC50 [1]
1 |  |  | Cc1nc2c(C(F)(F)F)cccc2n1-c1cccc(Oc2cccc(S(=O)(=O)CCCO)c2)c1 [Example 9, 3-[(3-{3-[2-methyl-4-(trifluoromethyl)-1H-benzimidazol-1-yl]phenoxy}-phenyl)sulfonyl]propan-1-ol] | 6.21
2 |  |  | Cc1nc2c(C(F)(F)F)cccc2n1-c1cccc(Oc2cc(F)cc(S(C)(=O)=O)c2)c1 [Example 8, 1-{3-[3-fluoro-5-(methylsulfonyl)phenoxy]phenyl}-2-methyl-4-(trifluoromethyl)-1H-benzimidazole] | 6.37
3 |  |  | CCS(=O)(=O)c1cccc(Oc2cccc(-n3c(C)nc4c(Cl)cccc43)c2)c1 [Example 41, 4-chloro-1-{3-[3-(ethylsulfonyl)phenoxy]phenyl}-2-methyl-1H-benzimidazole] | 6.13
4 |  |  | Cc1nc2c(Cl)cccc2n1-c1cccc(Oc2cccc(S(=O)(=O)C(F)(F)F)c2)c1 [Example 47, 4-chloro-2-methyl-1-(3-{3-[(trifluoromethyl)sulfonyl]phenoxy}phenyl)-1H-benzimidazole] | 6.67
5 |  |  | CCc1nc2c(C(F)(F)F)cccc2n1-c1cccc(Oc2cccc(S(C)(=O)=O)c2)c1 [Example 26, 2-ethyl-1-{3-[3-(methylsulfonyl)phenoxy]phenyl}-4-(trifluoromethyl)-1H-benzimidazole] | 6.85
6 |  |  | CCS(=O)(=O)c1cccc(Oc2cccc(-n3c(C)nc4c(C(F)(F)F)cccc43)c2)c1 [Example 5, 1-{3-[3-(ethylsulfonyl)phenoxy]phenyl}-2-methyl-4-(trifluoromethyl)-1H-benzimidazole] | 6.40
7 |  |  | CS(=O)(=O)c1cccc(Oc2cccc(-n3cnc4c(C(F)(F)F)cccc43)c2)c1 [Example 25, 1-{3-[3-(methylsulfonyl)phenoxy]phenyl}-4-(trifluoromethyl)-1H-benzimidazole] | 6.04
8 |  |  | CS(=O)(=O)c1cccc(Oc2cccc(-n3c(-c4ccccc4)nc4c(C(F)(F)F)cccc43)c2)c1 [Example 30, 1-{3-[3-(methylsulfonyl)phenoxy]phenyl}-2-phenyl-4-(trifluoromethyl)-1H-benzimidazole] | 6.80
9 |  |  | CS(=O)(=O)c1cccc(Oc2cccc(-n3c(C4CC4)nc4c(C(F)(F)F)cccc43)c2)c1 [Example 31, 2-cyclopropyl-1-{3-[3-(methylsulfonyl)phenoxy]phenyl}-4-(trifluoromethyl)-1H-benzimidazole] | 6.12
10 |  |  | CCCS(=O)(=O)c1cccc(Oc2cccc(-n3c(C)nc4c(C(F)(F)F)cccc43)c2)c1 [Example 10, 2-methyl-1-{3-[3-(propylsulfonyl)phenoxy]phenyl}-4-(trifluoromethyl)-1H-benzimidazole] | 6.21
11 |  |  | Cc1nc2c(C(F)(F)F)cccc2n1-c1cccc(Oc2cccc(S(=O)(=O)C(C)C)c2)c1 [Example 6, 1-{3-[3-(isopropylsulfonyl)phenoxy]phenyl}-2-methyl-4-(trifluoromethyl)-1H-benzimidazole] | 6.15
12 | 6.54 | 5.15 | Cc1nc2c(C(F)(F)F)cccc2n1-c1cccc(Oc2cccc(S(=O)(=O)CCC(C)(C)O)c2)c1 [Example 11, 2-methyl-4-[(3-{3-[2-methyl-4-(trifluoromethyl)-1H-benzimidazol-1-yl]phenoxy}-phenyl)sulfonyl]butan-2-ol] | 
13 | 6.51 | 5.60 | Cc1nc2c(Cl)cccc2n1-c1cc(Oc2ccccc2S(C)(=O)=O)ccc1Cl [Example 63, 4-chloro-1-{2-chloro-5-[2-(methylsulfonyl)phenoxy]phenyl}-2-methyl-1H-benzimidazole] | 
14 | 5.72 | 5.29 | CCc1nc2c(C(F)(F)F)cccc2n1-c1ccc(OCc2cccc(S(C)(=O)=O)c2)cc1 [Example 85, 2-ethyl-1-(4-{[3-(methylsulfonyl)benzyl]oxy}phenyl)-4-(trifluoromethyl)-1H-benzimidazole] | 
15 | 6.36 | 5.70 | CCS(=O)(=O)c1cc(F)cc(Oc2ccc(Cl)c(-n3c(C)nc4c(Cl)cccc43)c2)c1 [Example 59, 4-chloro-1-{2-chloro-5-[3-(ethylsulfonyl)-5-fluorophenoxy]phenyl}-2-methyl-1H-benzimidazole] | 
